This is an account of results in paper PMC12037037 (Proceedings of the National Academy of Sciences of the …, 2025).

Molecules are shown by their SMILES.

One assay concerns the target 5-HT5A (Homo sapiens, UniProt P47898). In words: Functional assay at 5-HT5A (Fig. S4). In kind it is cell-based. From the text:
Figure S4. […] Radioligand binding (RLB) (top) and IP1 functional assays (bottom) for 5-HT1A (A), 5-HT5a (B), 5-HT6 (C), and 5-HT7 (D) receptors. Agonist or antagonist mode is indicated in the title of each graph. Data represent the mean ± SEM of 2 technical replicates.
5-carboxamidotryptamine; ND = not determined for incomplete curves.
(§1) (1 picture or pasted object on this page, not shown here)

Assay [1] deals with T1, 5-HT2A receptors (Gi1, Gi3 activation) (Homo sapiens, UniProt P28223).
T1 construct: expressed in transfected cells; host or cells: HEK293T (transient)
T1 sequence (P28223 whole entry): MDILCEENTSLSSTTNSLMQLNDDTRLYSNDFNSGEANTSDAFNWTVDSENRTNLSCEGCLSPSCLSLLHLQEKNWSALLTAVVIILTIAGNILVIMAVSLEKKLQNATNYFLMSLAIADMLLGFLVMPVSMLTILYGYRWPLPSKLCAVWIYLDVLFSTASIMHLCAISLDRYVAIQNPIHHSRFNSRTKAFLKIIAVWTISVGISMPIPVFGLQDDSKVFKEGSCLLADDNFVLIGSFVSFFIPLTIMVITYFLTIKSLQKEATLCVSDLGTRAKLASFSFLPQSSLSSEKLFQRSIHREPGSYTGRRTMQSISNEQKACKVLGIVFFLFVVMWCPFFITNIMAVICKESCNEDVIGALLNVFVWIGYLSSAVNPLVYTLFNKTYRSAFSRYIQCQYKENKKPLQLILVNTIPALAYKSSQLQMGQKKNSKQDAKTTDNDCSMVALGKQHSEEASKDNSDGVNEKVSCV
In words: BRET-based assays of Gi1 and Gi3 activation. In kind it is cell-based.

A further assay concerns C57BL/6J mice. In words: Amphetamine-induced locomotion. In kind it is in vivo. As to conditions: (+)-JRT 1 mg/kg + AMPH 3 mg/kg. As to the method:
Figure S11. […] (A) Pretreatment with (+)-JRT (1 mg/kg,
IP) can block AMPH-induced hyperlocomotion in female, but not male, mice. (B) Pretreatment with (+)-JRT (1 mg/kg, IP) […]
AMPH = (+)-amphetamine; PCP = phencyclidine; VEH = vehicle; ns = not significant. *p < 0.05, **p < 0.01, ***p < 0.001, ****p < 0.0001, as compared to the comparator(s) indicated by a horizontal bar. See Methods and SI Appendix, Table S1 for full details on statistics.
as §1
Amphetamine-Induced Locomotion. The amphetamine-induced hyperlocomotion assay was performed using male and female C57BL/6J mice that were approximately 8 weeks old at the time of the experiments. Animals were first placed in the test arena (40 cm x 40 cm) for 15 min to obtain a basal reading of locomotion and habituate them to the testing arena.
Next, animals were administered (+)-JRT (1 mg/kg) or VEH (2.5 mL/kg, i.p) and placed back in the test arena. After 15 min, the animals were administered (+)-amphetamine (3 mg/kg) or VEH (2.5 mL/kg) and placed back in the test arena for 60 minutes. Locomotion during the entire experiment was quantified using ANYmaze Video Tracking System, version 7.07 (Stoelting Co.). The test arena was cleaned thoroughly with 70% ethanol between trials. […]
Reads were aligned to the GRCm39 genome assembly using STAR, processed with Picard, and counted with the Subread software. Transcript inclusion criteria consisted of a minimum raw expression level of 25 transcripts in a minimum of 4 samples. Surrogate variable analysis was conducted with the sva package 2023 release v3.5.0 in R and normalization and differential expression analysis was performed with DESeq2 v4.3 with a baseMean threshold of 10. Heatmaps were created with the pheatmap v1.0.12 with sample-wise z-scores plotted and both row and column grouping allowed using pearson's distances and ward.D for clustering. Gene-wise selection criteria for heatmaps were a baseMean expression threshold of 50 to focus on robustly expressed genes, p value < 0.05, and presence in the top 250 genes sorted by absolute value of log2FC. Additionally, z score was capped at 2 for visualization purposes. Schizophrenia gene sets were extracted from a recent TWAS study (30).
For Figure S8G, the TWAS set was filtered for FDR < 0.01. Permutation testing was conducted to quantify the overlap of top genes from schizophrenia TWAS with the perm_test function from the bulkWarehouse package 2023 release v1.2.7.
Briefly, the intersection of top differentially expressed genes and top TWAS genes is compared to an empirical distribution created by calculating the intersection with our top DEGs when randomly sampling candidate genes from our dataset equal to the size of the TWAS sample. […]

Chain of 5-HT5A (P47898 whole entry): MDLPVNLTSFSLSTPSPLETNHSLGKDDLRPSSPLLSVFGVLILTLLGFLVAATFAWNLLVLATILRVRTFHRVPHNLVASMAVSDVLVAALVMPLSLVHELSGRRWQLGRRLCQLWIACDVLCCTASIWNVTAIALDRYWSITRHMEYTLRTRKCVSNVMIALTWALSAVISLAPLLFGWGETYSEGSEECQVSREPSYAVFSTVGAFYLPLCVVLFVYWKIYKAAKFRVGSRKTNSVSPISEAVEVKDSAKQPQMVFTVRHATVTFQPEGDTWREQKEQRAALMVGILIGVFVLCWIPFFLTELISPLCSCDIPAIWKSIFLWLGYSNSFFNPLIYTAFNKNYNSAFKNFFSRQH

For the compound `CCN(CC)C(=O)[C@@H]1C=C2c3cccc4ccn(c34)C[C@H]2N(C)C1` [(+)-JRT], on 5-HT5A, the “Functional activity at 5-HT5A” value is on record as “antagonist”. The “Gi activation following stimulation of 5-HT2A receptors” value in assay [1] is recorded as “does not activate”. Besides, the “Locomotion (Figure 11A Females)” value in the assay with C57BL/6J mice (female mice, VEH + VEH 101.9 ± 15.04) turned out to be 217.2 ± 47.70. Moreover, the “Locomotion (Figure 11A Males)” value in the assay with C57BL/6J mice (male mice, VEH + VEH 59.80 ± 4.206) is 361.2 ± 35.54.
